Reference: ChEMBL document CHEMBL5303304, “EUbOPEN Chemogenomics Library - IncuCyte” (2023)
Values joined by “and” are separate entries in the source; they are usually repeats but may differ in a detail not shown here. Equal values may be shown once.

Legend:
Assay type in all cases: toxicity, cell-based
U2OS = assay: Incucyte cell viability with U2OS; conditions: human, 10 µM, compound concentration 10 uM
HEK-293T = assay: Incucyte cell viability with HEK293T; conditions: human, 10 µM, compound concentration 10 uM
Fibroblast = assay: Incucyte cell viability with human fibroblast; conditions: 10 µM, compound concentration 10 uM
Note: unitless GR value; below 1 slowed growth and below 0 cell loss.

Structure (SMILES) | Growth Rate (U2OS; 6 h, replicate number 1) | Growth Rate (U2OS; 12 h, replicate number 1) | Growth Rate (U2OS; 18 h, replicate number 1) | Growth Rate (U2OS; 24 h, replicate number 1) | Growth Rate (HEK-293T; 0 h, replicate number 2) | Growth Rate (HEK-293T; 6 h, replicate number 1) | Growth Rate (HEK-293T; 6 h, replicate number 2) | Growth Rate (Fibroblast; 6 h, replicate number 1) | Growth Rate (Fibroblast; 12 h, replicate number 1) | Growth Rate (Fibroblast; 12 h, replicate number 2) | Growth Rate (Fibroblast; 18 h, replicate number 1) | Growth Rate (Fibroblast; 24 h, replicate number 1) | Growth Rate (Fibroblast; 24 h, replicate number 2) | Growth Rate (U2OS; 6 h, replicate number 2) | Growth Rate (U2OS; 12 h, replicate number 2) | Growth Rate (U2OS; 18 h, replicate number 2) | Growth Rate (U2OS; 24 h, replicate number 2) | Growth Rate (HEK-293T; 0 h, replicate number 1) | Growth Rate (U2OS; 0 h, replicate number 2) | Growth Rate (Fibroblast; 0 h, replicate number 2) | also measured
CC[C@H](Nc1c(C#N)c(-c2ccc(-c3cccc(C)c3F)cc2)nc2cnccc12)C(=O)O [BAY-0361] | 0.1 | 0.56 | 0.74 | 0.91 | 0.79 | 0.67 | 0.74 | 0.67 | 0.65 | 0.93 | 0.75 | 0.8 | 0.84 | – | – | – | – | – | – | – | Growth Rate (HEK-293T; 12 h, replicate number 1): 0.79; Growth Rate (HEK-293T; 12 h, replicate number 2): 0.98; Growth Rate (HEK-293T; 18 h, replicate number 1): 0.91; Growth Rate (HEK-293T; 18 h, replicate number 2): 0.94; Growth Rate (HEK-293T; 24 h, replicate number 1): 0.92; Growth Rate (HEK-293T; 24 h, replicate number 2): 0.98; Growth Rate (Fibroblast; 6 h, replicate number 2): 0.85
COc1cc(/C=C(\C#N)C(=O)Nc2nnc(C(F)(F)F)s2)ccc1OCc1ccc(C(F)(F)F)cc1C(F)(F)F | 0.84 | – | – | 0.97 | – | 0.32 | 0.92 | – | -0.69 | 0.17 | 0.9 | 0.17 | 0.86 | 0.63 | 0.81 | 0.85 | 0.87 | 0.87 | – | – | Growth Rate (U2OS; 0 h, replicate number 1): 0.49; Growth Rate (HEK-293T; 12 h, replicate number 1): 0.72; Growth Rate (HEK-293T; 12 h, replicate number 2): 0.82; Growth Rate (HEK-293T; 18 h, replicate number 1): 0.91; Growth Rate (HEK-293T; 24 h, replicate number 1): 1; Growth Rate (HEK-293T; 24 h, replicate number 2): 0.98; Growth Rate (Fibroblast; 0 h, replicate number 1): -0.12; Growth Rate (Fibroblast; 18 h, replicate number 2): 0.84
Cc1nc2cccnc2n2c(-c3cc(C(C)(C)O)ncc3Cl)nnc12 | – | – | – | – | -0.52 | – | – | 0.43 | – | – | 0.63 | – | – | 0.32 | 0.74 | 0.95 | – | 0.72 | 0.27 | -0.22 | Growth Rate (Fibroblast; 0 h, replicate number 1): -1
Cn1nccc1-c1ccc(Sc2cccc(C3(C(N)=O)CCOCC3)c2)cc1 [PF-4191834] | 0.7 | – | 0.94 | 0.76 | – | -0.02 | -0.28 | -0.12 | 0 | 0.52 | -0.01 | 0.22 | 0.46 | 0.8 | 0.79 | 0.88 | 0.93 | 0.41 | – | -0.66 | Growth Rate (HEK-293T; 12 h, replicate number 1): 0.37; Growth Rate (HEK-293T; 12 h, replicate number 2): -0.18; Growth Rate (HEK-293T; 18 h, replicate number 1): 0.29; Growth Rate (HEK-293T; 18 h, replicate number 2): 0; Growth Rate (HEK-293T; 24 h, replicate number 1): 0.31; Growth Rate (HEK-293T; 24 h, replicate number 2): 0.15; Growth Rate (Fibroblast; 6 h, replicate number 2): 0.25; Growth Rate (Fibroblast; 18 h, replicate number 2): 0.45
Cl.Cl.N=C(N)NCCC[C@H](NC(=O)CC1(CC(=O)N2CCN(C3c4ccccc4NC(=O)c4ccccc43)CC2)CCCC1)C(=O)NCCn1c(=O)n(-c2ccccc2)n(-c2ccccc2)c1=O (stereo partly drawn) | 0.65 | 0.69 | 0.83 | 0.73 | -0.2 | 0.47 | – | 0.27 | 0.91 | – | 0.59 | 0.6 | – | 0.78 | 0.78 | 0.87 | 0.99 | – | 0.1 | 0.97 | Growth Rate (U2OS; 0 h, replicate number 1): 0.38
CN(C)C(=O)c1sc2nc(N3CCC(S(C)(=O)=O)CC3)cc(C(F)(F)F)c2c1N [BI-5026] | 0.38 and 0.65 | 0.88 and 0.68 | 0.84 | 0.88 and 0.97 | 0.24 | 0.88 and 0.51 | 0.65 | – | – | – | – | – | – | – | – | – | – | – | – | -0.94 | Growth Rate (HEK-293T; 12 h, replicate number 1): 0.83 and 0.56; Growth Rate (HEK-293T; 12 h, replicate number 2): 0.99; Growth Rate (HEK-293T; 18 h, replicate number 1): 0.86 and 0.6; Growth Rate (HEK-293T; 18 h, replicate number 2): 0.85; Growth Rate (HEK-293T; 24 h, replicate number 1): 0.97 and 0.77; Growth Rate (HEK-293T; 24 h, replicate number 2): 0.98; Growth Rate (Fibroblast; 0 h, replicate number 1): -1
O=C1NC(NC23CC4CC(CC(C4)C2)C3)=N/C1=C\c1ccc2ncsc2c1 | – | – | – | 0.82 | -0.26 | – | – | -1 | – | – | – | – | – | – | – | 0.87 | 0.52 | -0.45 | -0.34 | 0.76 | Growth Rate (U2OS; 0 h, replicate number 1): 0.86; Growth Rate (HEK-293T; 12 h, replicate number 1): 0.28; Growth Rate (HEK-293T; 12 h, replicate number 2): 0.34; Growth Rate (HEK-293T; 18 h, replicate number 1): 0.06; Growth Rate (HEK-293T; 18 h, replicate number 2): 0.09; Growth Rate (HEK-293T; 24 h, replicate number 1): 0.08; Growth Rate (HEK-293T; 24 h, replicate number 2): 0.05; Growth Rate (Fibroblast; 0 h, replicate number 1): 0.57
COc1cc(C(=O)NCCOCCOCCOCC(=O)N[C@H](C(=O)N2C[C@@H](O)C[C@H]2C(=O)NCc2ccc(-c3scnc3C)cc2)C(C)(C)C)ccc1Nc1ncc(C(F)(F)F)c(Oc2cccc3c2C(=O)CC3)n1 | – | – | – | – | – | – | – | – | – | – | – | – | – | – | – | – | 0.94 | -1 | 0.1 | 0.86 | –
C=CC(=O)Nc1cccc(C)c1Nc1ncc2cc(-c3c(Cl)c(OC)cc(OC)c3Cl)ccc2n1 | 0.45 | 0.25 | 0.32 | 0.38 | – | -0.39 | -0.56 | -0.64 | 0.12 | 0.44 | 0.03 | 0.05 | 0.33 | 0.31 | 0.5 | 0.42 | 0.4 | – | 0.38 | – | Growth Rate (U2OS; 0 h, replicate number 1): -0.45; Growth Rate (HEK-293T; 12 h, replicate number 1): -0.35; Growth Rate (HEK-293T; 12 h, replicate number 2): -0.45; Growth Rate (HEK-293T; 18 h, replicate number 1): -0.32; Growth Rate (HEK-293T; 18 h, replicate number 2): -0.41; Growth Rate (HEK-293T; 24 h, replicate number 1): -0.21; Growth Rate (HEK-293T; 24 h, replicate number 2): -0.26; Growth Rate (Fibroblast; 6 h, replicate number 2): -0.2; Growth Rate (Fibroblast; 18 h, replicate number 2): 0.44
CCOC(=O)c1c(/C(C#N)=C\N)c2ccc(Cl)c(Cl)c2n1C | 0.92 | 0.97 | – | 0.94 | – | – | – | -0.96 | – | 0.88 | 0.7 | 0.75 | 0.9 | – | – | – | – | 0.22 | 0.82 | – | Growth Rate (U2OS; 0 h, replicate number 1): -0.98; Growth Rate (Fibroblast; 0 h, replicate number 1): 0.55
CCC(=O)O[C@]1(C(=O)CCl)[C@@H](C)C[C@H]2[C@@H]3CCC4=CC(=O)C=C[C@]4(C)[C@@]3(F)[C@@H](O)C[C@@]21C [CLOBETASOL PROPIONATE] | -0.15 | 0.77 | 0.92 | 0.83 | – | 0.7 | 1 | 0.53 | -1 | – | – | – | – | 0.94 | 0.76 | 0.88 | – | – | -0.24 | – | –
O=C1NCCc2c(OCCCCN3CCCCC3)cccc21 | 0.02 | 0.56 | 0.79 | 0.79 | 0.67 | 0.81 | – | 0.19 | -0.5 | 0.64 | – | – | 0.76 | 0.34 | 0.86 | 0.88 | 0.83 | 0.6 | -0.98 | -0.96 | Growth Rate (Fibroblast; 0 h, replicate number 1): 0.29; Growth Rate (Fibroblast; 18 h, replicate number 2): 0.79
NC1=NC(=O)/C(=C2\CCNC(=O)c3[nH]c4ccccc4c32)N1 | 0.43 | 0.63 | 0.74 | 0.78 | 0.25 | – | – | – | -1 | – | -0.07 | – | – | 0.45 | 0.7 | 0.65 | – | 0.81 | – | – | Growth Rate (Fibroblast; 0 h, replicate number 1): 0.39
CN1[C@@H](CC(=O)c2ccccc2)CCC[C@H]1C[C@H](O)c1ccccc1.Cl [LOBELINE HYDROCHLORIDE] | 0.83 | 0.92 | – | – | – | 0.43 | 0.24 | 0.48 | – | 0.64 | 0.91 | 0.58 | 0.83 | – | – | 1 | 0.87 | – | -0.67 | -0.71 | Growth Rate (U2OS; 0 h, replicate number 1): 0.28; Growth Rate (HEK-293T; 12 h, replicate number 1): 0.62; Growth Rate (Fibroblast; 6 h, replicate number 2): 0.28
CC(=O)N1CCC(c2ccc(C(=O)NC(=N)N)cc2C(F)(F)F)CC1 [BI 9627] | 0.3 | 0.75 | 0.9 | 1 | – | – | 0.69 | – | – | 0.57 | – | 0.8 | 0.76 | – | 0.96 | – | 0.92 | 0.72 | 0.44 | – | Growth Rate (U2OS; 0 h, replicate number 1): 0.01; Growth Rate (HEK-293T; 12 h, replicate number 2): 0.65; Growth Rate (HEK-293T; 18 h, replicate number 2): 0.77; Growth Rate (HEK-293T; 24 h, replicate number 2): 0.92; Growth Rate (Fibroblast; 18 h, replicate number 2): 0.95
